Source: patent US6573218B1, “Fused-benzene derivatives useful as herbicides” (Ishihara Sangyo Kaisha, Ltd., priority 1998, dated 2003)

Assays:
Type in all cases: in vivo
[1] = test system: soybean (Glycine max L., var. Pella 86, SOY); test: Post-emerge greenhouse crop damage test
Text: (§1) A standard greenhouse herbicide activity screening system was used to evaluate the herbicidal efficacy and crop safety of these test compounds. Seven broadleaf weed species including redroot pigweed (Amaranthus retroflexus, AMARE), velvetleaf (Abutilon theophrasti, ABUTH), sicklepod (Cassia obtusifolia, CASOB), ivyleaf morningglory (Ipomoea hederacea, IPOHE), lambsquarters (Chenopodium album, CHEAL), common ragweed (Ambrosia artemisiifolia L., AMBEL), and cocklebur (Xanthium strumarium, XANST) were used as test species. Four grass weed species including green foxtail (Setaria viridis, SETVI), barnyardgrass (Echinochloa crus-galli, ECHCG), johnsongrass (Sorghum halepense, SORHA), and large crabgrass (Digitaria sanguinalis, DIGSA) were also used. In addition, three crop species, field corn (Zea mays L., var. Dekalb 527, CORN), soybean (Glycine max L., var. Pella 86, SOY), and upland rice (Ory0a sp., var.Tebonnet, RICE) were included.
(§2) All plants were grown in 10 cm square plastic pots which were filled with a sandy loam soil mix. For pre-emerge tests, seeds were planted one day prior to application of the test compounds. For post-emerge tests, seeds were planted 8-21 days prior to the test to allow emergence and good foliage development prior to application of the test substances. At the time of the post-emerge application, plants of all species were usually at the 2-3 leaf stage of development.
(§3) All test compounds were dissolved in acetone and applied to the test units in a volume of 187 l/ha. Test materials were applied at rates ranging from 15 g ai/ha to 1000 g ai/ha using a track sprayer equipped with a TJ8001E even flow flat fan spray nozzle. Plants were arranged on a shelf so that the top of the canopy (post-emerge) or top of the soil surface (pre-emerge) was 40-45 cm below the nozzle. Pressurized air was used to force the test solution through the nozzle as it was mechanically advanced over the top of all test plants/pots. This application simulates a typical commercial field herbicide application.
(§4) In the post-emerge test, a commercial non-ionic surfactant was also included (0.25% v/v) to enhance wetting of the leaf surfaces of target plants. Immediately after application, test units of the pre-emerge applications were watered at the soil surface to incorporate the test materials.
(§5) At 14 days after application of the test materials, phytotoxicity ratings were recorded. A rating scale of 0-100 was used as previously described in Research Methods in Weed Science, 2nd edition, B. Truelove, Ed., Southern Weed Science Society, Auburn University, Auburn, Ala., 1977. Briefly, “0” corresponds to no damage and “100” corresponds to complete death of all plants in the test unit. This scale was used both to determine efficacy against weed species and damage to crop species. Herbicide activity data for various compounds of this invention, which are shown by compound No. in Tables 1-14, are shown in Tables 16 and 17.

[2] = test system: upland rice (Ory0a sp., var.Tebonnet, RICE); test: Post-emerge greenhouse crop damage test
Text: as §1, §2, §3, §4, §5

[3] = test system: field corn (Zea mays L., var. Dekalb 527, CORN); test: Post-emerge greenhouse crop damage test
Text: as §1, §2, §3, §4, §5

[4] = test system: barnyardgrass (Echinochloa crus-galli, ECHCG); test: Post-emerge greenhouse herbicide test; conditions: 250 g ai/ha, 14 days after application
Text: as §1, §2, §3, §4, §5

[5] = test system: large crabgrass (Digitaria sanguinalis, DIGSA); test: Post-emerge greenhouse herbicide test; conditions: 250 g ai/ha, 14 days after application
Text: as §1, §2, §3, §4, §5

[6] = test system: johnsongrass (Sorghum halepense, SORHA); test: Post-emerge greenhouse herbicide test; conditions: 250 g ai/ha, 14 days after application
Text: as §1, §2, §3, §4, §5

[7] = test system: sicklepod (Cassia obtusifolia, CASOB); test: Post-emerge greenhouse herbicide test; conditions: 250 g ai/ha, 14 days after application
Text: as §1, §2, §3, §4, §5

[8] = test system: ivyleaf morningglory (Ipomoea hederacea, IPOHE); test: Post-emerge greenhouse herbicide test; conditions: 250 g ai/ha, 14 days after application
Text: as §1, §2, §3, §4, §5

[9] = test system: redroot pigweed (Amaranthus retroflexus, AMARE); test: Post-emerge greenhouse herbicide test; conditions: 250 g ai/ha, 14 days after application
Text: as §1, §2, §3, §4, §5

[10] = test system: lambsquarters (Chenopodium album, CHEAL); test: Post-emerge greenhouse herbicide test; conditions: 250 g ai/ha, 14 days after application
Text: as §1, §2, §3, §4, §5

[11] = test system: common ragweed (Ambrosia artemisiifolia L., AMBEL); test: Post-emerge greenhouse herbicide test; conditions: 250 g ai/ha, 14 days after application
Text: as §1, §2, §3, §4, §5

[12] = test system: green foxtail (Setaria viridis, SETVI); test: Post-emerge greenhouse herbicide test; conditions: 250 g ai/ha, 14 days after application
Text: as §1, §2, §3, §4, §5

[13] = test system: velvetleaf (Abutilon theophrasti, ABUTH); test: Post-emerge greenhouse herbicide test; conditions: 250 g ai/ha, 14 days after application
Text: as §1, §2, §3, §4, §5

[14] = test system: soybean (Glycine max L., var. Pella 86, SOY); test: Pre-emerge greenhouse crop damage test
Text: as §1, §2, §3, §4, §5

[15] = test system: upland rice (Ory0a sp., var.Tebonnet, RICE); test: Pre-emerge greenhouse crop damage test; conditions: in vivo
Text: as §1, §2, §3, §4, §5

[16] = test system: field corn (Zea mays L., var. Dekalb 527, CORN); test: Pre-emerge greenhouse crop damage test
Text: as §1, §2, §3, §4, §5

[17] = test system: barnyardgrass (Echinochloa crus-galli, ECHCG); test: Pre-emerge greenhouse herbicide test; conditions: 250 g ai/ha, 14 days after application, scale 0-100 (0 no damage, 100 complete death)
Text: as §1, §2, §3, §4, §5

[18] = test system: large crabgrass (Digitaria sanguinalis, DIGSA); test: Pre-emerge greenhouse herbicide test; conditions: 250 g ai/ha, 14 days after application, scale 0-100 (0 no damage, 100 complete death)
Text: as §1, §2, §3, §4, §5

[19] = test system: johnsongrass (Sorghum halepense, SORHA); test: Pre-emerge greenhouse herbicide test; conditions: 250 g ai/ha, 14 days after application, scale 0-100 (0 no damage, 100 complete death)
Text: as §1, §2, §3, §4, §5

[20] = test system: sicklepod (Cassia obtusifolia, CASOB); test: Pre-emerge greenhouse herbicide test; conditions: 250 g ai/ha, 14 days after application, scale 0-100 (0 no damage, 100 complete death)
Text: as §1, §2, §3, §4, §5

[21] = test system: ivyleaf morningglory (Ipomoea hederacea, IPOHE); test: Pre-emerge greenhouse herbicide test; conditions: 250 g ai/ha, 14 days after application, scale 0-100 (0 no damage, 100 complete death)
Text: as §1, §2, §3, §4, §5

[22] = test system: redroot pigweed (Amaranthus retroflexus, AMARE); test: Pre-emerge greenhouse herbicide test; conditions: 250 g ai/ha, 14 days after application, scale 0-100 (0 no damage, 100 complete death)
Text: as §1, §2, §3, §4, §5

[23] = test system: lambsquarters (Chenopodium album, CHEAL); test: Pre-emerge greenhouse herbicide test; conditions: 250 g ai/ha, 14 days after application, scale 0-100 (0 no damage, 100 complete death)
Text: as §1, §2, §3, §4, §5

[24] = test system: green foxtail (Setaria viridis, SETVI); test: Pre-emerge greenhouse herbicide test; conditions: 250 g ai/ha, 14 days after application, scale 0-100 (0 no damage, 100 complete death)
Text: as §1, §2, §3, §4, §5

[25] = test system: velvetleaf (Abutilon theophrasti, ABUTH); test: Pre-emerge greenhouse herbicide test; conditions: 250 g ai/ha, 14 days after application, scale 0-100 (0 no damage, 100 complete death)
Text: as §1, §2, §3, §4, §5

[26] = 250 g ai/ha, post-emerge, 14 days after application
[27] = pre-emerge, 250 g ai/ha, 14 days after application, scale 0-100 (0 no damage, 100 complete death)
[28] = var. Pella 86, soybean (Glycine max L.), in vivo, 14 days
[29] = var. Tebonnet, upland rice (Ory0a sp.), in vivo, 14 days
[30] = var. Dekalb 527, field corn (Zea mays L.), in vivo, 14 days
[31] = var. Tebonnet, upland rice (Ory0a sp.), 14 days

| Structure (SMILES) | Post-emerge crop damage SOY (phytotoxicity rating 0-100) [1, 26] | Post-emerge crop damage RICE (phytotoxicity rating 0-100) [2, 26] | Post-emerge Herbicidal Activity ECHCG (phytotoxicity rating 0-100) [4] | Post-emerge Herbicidal Activity DIGSA (phytotoxicity rating 0-100) [5] | Post-emerge Herbicidal Activity SORHA (phytotoxicity rating 0-100) [6] | Post-emerge Herbicidal Activity CASOB (phytotoxicity rating 0-100) [7] | Post-emerge Herbicidal Activity IPOHE (phytotoxicity rating 0-100) [8] | Post-emerge Herbicidal Activity AMARE (phytotoxicity rating 0-100) [9] | Post-emerge Herbicidal Activity CHEAL (phytotoxicity rating 0-100) [10] | Post-emerge Herbicidal Activity SETVI (phytotoxicity rating 0-100) [12] | Post-emerge Herbicidal Activity ABUTH (phytotoxicity rating 0-100) [13] | Pre-emerge Herbicidal Activity ECHCG (phytotoxicity rating) [17] | Pre-emerge Herbicidal Activity DIGSA (phytotoxicity rating) [18] | Pre-emerge Herbicidal Activity SORHA (phytotoxicity rating) [19] | Pre-emerge Herbicidal Activity CASOB (phytotoxicity rating) [20] | Pre-emerge Herbicidal Activity IPOHE (phytotoxicity rating) [21] | Pre-emerge Herbicidal Activity AMARE (phytotoxicity rating) [22] | Pre-emerge Herbicidal Activity CHEAL (phytotoxicity rating) [23] | Pre-emerge Herbicidal Activity SETVI (phytotoxicity rating) [24] | Pre-emerge Herbicidal Activity ABUTH (phytotoxicity rating) [25] | further results |
| --- | --- | --- | --- | --- | --- | --- | --- | --- | --- | --- | --- | --- | --- | --- | --- | --- | --- | --- | --- | --- | --- |
| CC1Oc2c(Cl)cc(F)c(-c3nn(C)c(OC(F)F)c3Cl)c2NC1=O (centres unmarked) [Compound 10-8, 4-Chloro-3-(8-chloro-6-fluoro-2-methyl-2H-1,4-benzoxazine-3-one-5-yl)-5-difluoromethoxy-1-methyl-i H-pyrazole] | 100 | 90 | 100 | 65 | 55 | 100 | 100 | 100 | 100 | 100 | 100 | 100 | 100 | 99 | 95 | 99 | 100 | 100 | 100 | 100 | Post-emerge crop damage CORN (phytotoxicity rating 0-100) [3, 26]: 25; Post-emerge Herbicidal Activity AMBEL (phytotoxicity rating 0-100) [11]: 95; Pre-emerge Herbicidal Activity SOY (crop damage rating) [14, 27]: 15; Pre-emerge Herbicidal Activity RICE (crop damage rating) [15]: 40; Pre-emerge Herbicidal Activity CORN (crop damage rating) [16, 27]: 0 |
| CCOC(=O)c1nc2c(-n3c(=O)cc(C(F)(F)F)n(C)c3=O)c(F)cc(Cl)c2oc1=O [Compound 3-5] | 0 | 0 | 0 | 0 | 0 | 0 | 0 | 20 | 0 | 10 | 60 | 0 | 0 | 0 | 0 | 0 | 50 | 70 | 0 | 65 | Post-emerge crop damage CORN (phytotoxicity rating 0-100) [3, 26]: 0; Pre-emerge Herbicidal Activity SOY (crop damage rating) [14, 27]: 0; Pre-emerge Herbicidal Activity RICE (crop damage rating) [15]: 0; Pre-emerge Herbicidal Activity CORN (crop damage rating) [16, 27]: 0 |
| Cc1nc2c(-n3c(=O)cc(C(F)(F)F)n(C)c3=O)c(F)cc(Cl)c2oc1=O [Compound 3-1, 3-(8-Chloro-6-fluoro-3-methyl-2H-1,4-benzoxazin-2-one-5-yl)-1-methyl-6-trifluoromethyl-2,4(1H,3H)-pyrimidindione] |  |  | 0 | 0 | 0 | 0 | 50 | 70 | 60 | 0 | 95 | 0 | 0 | 0 | 0 | 0 | 60 | 100 | 20 | 100 | Post-emerge crop damage SOY (phytotoxicity rating 0-100) [1, 28]: 30; Post-emerge crop damage RICE (phytotoxicity rating 0-100) [2, 29]: 0; Post-emerge crop damage CORN (phytotoxicity rating 0-100) [3, 30]: 0; Post-emerge Herbicidal Activity AMBEL (phytotoxicity rating 0-100) [11]: 20; Pre-emerge Herbicidal Activity SOY (crop damage rating) [14, 28]: 0; Pre-emerge Herbicidal Activity RICE (crop damage rating) [15, 31]: 0; Pre-emerge Herbicidal Activity CORN (crop damage rating) [16, 30]: 0 |
| CC1Oc2c(Cl)cc(F)c(-n3c(=O)cc(C(F)(F)F)n(C)c3=O)c2NC1=O (centres unmarked) [Compound 4-3, 3-(8-Chloro-6-fluoro-2-methyl-2H-1,4-benzoxazin-3-one-5-yl)-1-methyl-6-trifluoromethyl-2,4(1H,3H)-pyrimidindione] |  |  | 80 | 70 | 90 | 95 | 100 | 100 | 100 | 50 | 100 | 99 | 100 | 100 | 100 | 100 | 100 | 100 | 100 | 100 | Post-emerge crop damage SOY (phytotoxicity rating 0-100) [1, 28]: 100; Post-emerge crop damage RICE (phytotoxicity rating 0-100) [2, 29]: 80; Post-emerge crop damage CORN (phytotoxicity rating 0-100) [3, 30]: 100; Pre-emerge Herbicidal Activity SOY (crop damage rating) [14, 28]: 100; Pre-emerge Herbicidal Activity RICE (crop damage rating) [15, 31]: 99; Pre-emerge Herbicidal Activity CORN (crop damage rating) [16, 30]: 99 |
